# Experimental data published in the NIST ThermoML archive (doi:10.1021/acs.jced.5b00051).
# Numbers after ± are expanded uncertainties.
# Test: molar heat capacity at constant pressure
# Conditions: 275.15 K; 101.33 kPa; Liquid; Large sample (1 g) DSC
row,Compound,molar heat capacity at constant pressure [J/K/mol]
1,CCCCCCOCCOCCO [2-(2-hexyloxyethoxy)ethanol],411.2 ± 6.4
2,COCCOCCO [2-(2-methoxyethoxy)ethanol],261.9 ± 4.1
3,"CCOCCOCCO [3,6-dioxa-1-octanol]",296.5 ± 4.6

# Next, values leading:
row,molar heat capacity at constant pressure [J/K/mol],Compound
1,231.6 ± 3.6,CCCOCCO [2-propoxyethanol]
2,321.3 ± 5,CCCOCCOCCO [2-(2-propoxyethoxy)ethanol]
3,445.4 ± 6.9,"COCCOCCOCCOCCO [3,6,9,12-tetraoxatridecanol]"
4,203.3 ± 3.2,CCOCCO [2-ethoxyethan-1-ol]

# Same assay, conditions: 277.15 K; 101.33 kPa; Liquid; Large sample (1 g) DSC
row,Compound,molar heat capacity at constant pressure [J/K/mol]
1,CCCCCCOCCOCCO [2-(2-hexyloxyethoxy)ethanol],412 ± 6.4
2,COCCOCCO [2-(2-methoxyethoxy)ethanol],262.3 ± 4.1
3,"CCOCCOCCO [3,6-dioxa-1-octanol]",296.8 ± 4.6

# Continued, values first:
row,molar heat capacity at constant pressure [J/K/mol],Compound
1,232.4 ± 3.6,CCCOCCO [2-propoxyethanol]
2,322 ± 5,CCCOCCOCCO [2-(2-propoxyethoxy)ethanol]
3,445.6 ± 6.9,"COCCOCCOCCOCCO [3,6,9,12-tetraoxatridecanol]"
4,204 ± 3.2,CCOCCO [2-ethoxyethan-1-ol]

# Same assay, conditions: 279.15 K; 101.33 kPa; Liquid; Large sample (1 g) DSC
row,Compound,molar heat capacity at constant pressure [J/K/mol]
1,CCCCCCOCCOCCO [2-(2-hexyloxyethoxy)ethanol],412.8 ± 6.4
2,COCCOCCO [2-(2-methoxyethoxy)ethanol],262.7 ± 4.1
3,"CCOCCOCCO [3,6-dioxa-1-octanol]",297.2 ± 4.6

# Results, then the molecule that gave them:
row,molar heat capacity at constant pressure [J/K/mol],Compound
1,233.3 ± 3.6,CCCOCCO [2-propoxyethanol]
2,322.6 ± 5,CCCOCCOCCO [2-(2-propoxyethoxy)ethanol]
3,445.8 ± 6.9,"COCCOCCOCCOCCO [3,6,9,12-tetraoxatridecanol]"
4,204.6 ± 3.2,CCOCCO [2-ethoxyethan-1-ol]

# Same assay, conditions: 281.15 K; 101.33 kPa; Liquid; Large sample (1 g) DSC
row,Compound,molar heat capacity at constant pressure [J/K/mol]
1,CCCCCCOCCOCCO [2-(2-hexyloxyethoxy)ethanol],413.6 ± 6.4
2,COCCOCCO [2-(2-methoxyethoxy)ethanol],263.2 ± 4.1
3,"CCOCCOCCO [3,6-dioxa-1-octanol]",297.6 ± 4.6

# Second part, the molecule after the results:
row,molar heat capacity at constant pressure [J/K/mol],Compound
1,234.1 ± 3.6,CCCOCCO [2-propoxyethanol]
2,323.3 ± 5,CCCOCCOCCO [2-(2-propoxyethoxy)ethanol]
3,446 ± 6.9,"COCCOCCOCCOCCO [3,6,9,12-tetraoxatridecanol]"
4,205.3 ± 3.2,CCOCCO [2-ethoxyethan-1-ol]

# Same assay, conditions: 283.15 K; 101.33 kPa; Liquid; Large sample (1 g) DSC
row,Compound,molar heat capacity at constant pressure [J/K/mol]
1,CCCCCCOCCOCCO [2-(2-hexyloxyethoxy)ethanol],414.4 ± 6.4
2,COCCOCCO [2-(2-methoxyethoxy)ethanol],263.6 ± 4.1
3,"CCOCCOCCO [3,6-dioxa-1-octanol]",298 ± 4.6

# The remaining lines, values ahead:
row,molar heat capacity at constant pressure [J/K/mol],Compound
1,235 ± 3.6,CCCOCCO [2-propoxyethanol]
2,324 ± 5,CCCOCCOCCO [2-(2-propoxyethoxy)ethanol]
3,446.2 ± 6.9,"COCCOCCOCCOCCO [3,6,9,12-tetraoxatridecanol]"
4,205.9 ± 3.2,CCOCCO [2-ethoxyethan-1-ol]

# Same assay, conditions: 285.15 K; 101.33 kPa; Liquid; Large sample (1 g) DSC
row,Compound,molar heat capacity at constant pressure [J/K/mol]
1,CCCCCCOCCOCCO [2-(2-hexyloxyethoxy)ethanol],415.3 ± 6.4
2,COCCOCCO [2-(2-methoxyethoxy)ethanol],264.1 ± 4.1
3,"CCOCCOCCO [3,6-dioxa-1-octanol]",298.5 ± 4.6

# Continued, values first:
row,molar heat capacity at constant pressure [J/K/mol],Compound
1,235.8 ± 3.7,CCCOCCO [2-propoxyethanol]
2,324.7 ± 5,CCCOCCOCCO [2-(2-propoxyethoxy)ethanol]
3,446.5 ± 6.9,"COCCOCCOCCOCCO [3,6,9,12-tetraoxatridecanol]"
4,206.6 ± 3.2,CCOCCO [2-ethoxyethan-1-ol]

# Same assay, conditions: 287.15 K; 101.33 kPa; Liquid; Large sample (1 g) DSC
row,Compound,molar heat capacity at constant pressure [J/K/mol]
1,CCCCCCOCCOCCO [2-(2-hexyloxyethoxy)ethanol],416.1 ± 6.4
2,COCCOCCO [2-(2-methoxyethoxy)ethanol],264.6 ± 4.1
3,"CCOCCOCCO [3,6-dioxa-1-octanol]",298.9 ± 4.6

# The next lines start with the values.
row,molar heat capacity at constant pressure [J/K/mol],Compound
1,236.6 ± 3.7,CCCOCCO [2-propoxyethanol]
2,325.4 ± 5,CCCOCCOCCO [2-(2-propoxyethoxy)ethanol]
3,446.8 ± 6.9,"COCCOCCOCCOCCO [3,6,9,12-tetraoxatridecanol]"
4,207.3 ± 3.2,CCOCCO [2-ethoxyethan-1-ol]

# Same assay, conditions: 289.15 K; 101.33 kPa; Liquid; Large sample (1 g) DSC
row,Compound,molar heat capacity at constant pressure [J/K/mol]
1,CCCCCCOCCOCCO [2-(2-hexyloxyethoxy)ethanol],417 ± 6.5
2,COCCOCCO [2-(2-methoxyethoxy)ethanol],265.1 ± 4.1
3,"CCOCCOCCO [3,6-dioxa-1-octanol]",299.4 ± 4.6

# The remaining lines, values ahead:
row,molar heat capacity at constant pressure [J/K/mol],Compound
1,237.5 ± 3.7,CCCOCCO [2-propoxyethanol]
2,326.1 ± 5.1,CCCOCCOCCO [2-(2-propoxyethoxy)ethanol]
3,447.1 ± 6.9,"COCCOCCOCCOCCO [3,6,9,12-tetraoxatridecanol]"
4,208 ± 3.2,CCOCCO [2-ethoxyethan-1-ol]

# Same assay, conditions: 291.15 K; 101.33 kPa; Liquid; Large sample (1 g) DSC
row,Compound,molar heat capacity at constant pressure [J/K/mol]
1,CCCCCCOCCOCCO [2-(2-hexyloxyethoxy)ethanol],417.9 ± 6.5
2,COCCOCCO [2-(2-methoxyethoxy)ethanol],265.6 ± 4.1
3,"CCOCCOCCO [3,6-dioxa-1-octanol]",299.9 ± 4.6

# More lines, now with the values ahead:
row,molar heat capacity at constant pressure [J/K/mol],Compound
1,238.3 ± 3.7,CCCOCCO [2-propoxyethanol]
2,326.8 ± 5.1,CCCOCCOCCO [2-(2-propoxyethoxy)ethanol]
3,447.4 ± 6.9,"COCCOCCOCCOCCO [3,6,9,12-tetraoxatridecanol]"
4,208.6 ± 3.2,CCOCCO [2-ethoxyethan-1-ol]

# Same assay, conditions: 293.15 K; 101.33 kPa; Liquid; Large sample (1 g) DSC
row,Compound,molar heat capacity at constant pressure [J/K/mol]
1,CCCCCCOCCOCCO [2-(2-hexyloxyethoxy)ethanol],418.7 ± 6.5
2,COCCOCCO [2-(2-methoxyethoxy)ethanol],266.1 ± 4.1
3,"CCOCCOCCO [3,6-dioxa-1-octanol]",300.4 ± 4.7

# Further lines, results first:
row,molar heat capacity at constant pressure [J/K/mol],Compound
1,239.2 ± 3.7,CCCOCCO [2-propoxyethanol]
2,327.5 ± 5.1,CCCOCCOCCO [2-(2-propoxyethoxy)ethanol]
3,447.7 ± 6.9,"COCCOCCOCCOCCO [3,6,9,12-tetraoxatridecanol]"
4,209.3 ± 3.2,CCOCCO [2-ethoxyethan-1-ol]

# Same assay, conditions: 295.15 K; 101.33 kPa; Liquid; Large sample (1 g) DSC
row,Compound,molar heat capacity at constant pressure [J/K/mol]
1,CCCCCCOCCOCCO [2-(2-hexyloxyethoxy)ethanol],419.6 ± 6.5
2,COCCOCCO [2-(2-methoxyethoxy)ethanol],266.6 ± 4.1
3,"CCOCCOCCO [3,6-dioxa-1-octanol]",300.9 ± 4.7

# More lines, now with the values ahead:
row,molar heat capacity at constant pressure [J/K/mol],Compound
1,240.1 ± 3.7,CCCOCCO [2-propoxyethanol]
2,328.2 ± 5.1,CCCOCCOCCO [2-(2-propoxyethoxy)ethanol]
3,448.1 ± 6.9,"COCCOCCOCCOCCO [3,6,9,12-tetraoxatridecanol]"
4,210 ± 3.3,CCOCCO [2-ethoxyethan-1-ol]

# Same assay, conditions: 297.15 K; 101.33 kPa; Liquid; Large sample (1 g) DSC
row,Compound,molar heat capacity at constant pressure [J/K/mol]
1,CCCCCCOCCOCCO [2-(2-hexyloxyethoxy)ethanol],420.5 ± 6.5
2,COCCOCCO [2-(2-methoxyethoxy)ethanol],267.1 ± 4.1
3,"CCOCCOCCO [3,6-dioxa-1-octanol]",301.4 ± 4.7

# Next, values leading:
row,molar heat capacity at constant pressure [J/K/mol],Compound
1,240.9 ± 3.7,CCCOCCO [2-propoxyethanol]
2,329 ± 5.1,CCCOCCOCCO [2-(2-propoxyethoxy)ethanol]
3,448.4 ± 6.9,"COCCOCCOCCOCCO [3,6,9,12-tetraoxatridecanol]"
4,210.7 ± 3.3,CCOCCO [2-ethoxyethan-1-ol]

# Same assay, conditions: 298.15 K; 101.33 kPa; Liquid; Large sample (1 g) DSC
row,Compound,molar heat capacity at constant pressure [J/K/mol]
1,CCCCCCOCCOCCO [2-(2-hexyloxyethoxy)ethanol],421 ± 6.5
2,COCCOCCO [2-(2-methoxyethoxy)ethanol],267.4 ± 4.1
3,"CCOCCOCCO [3,6-dioxa-1-octanol]",301.7 ± 4.7

# The next lines start with the values.
row,molar heat capacity at constant pressure [J/K/mol],Compound
1,241.4 ± 3.7,CCCOCCO [2-propoxyethanol]
2,329.4 ± 5.1,CCCOCCOCCO [2-(2-propoxyethoxy)ethanol]
3,448.6 ± 6.9,"COCCOCCOCCOCCO [3,6,9,12-tetraoxatridecanol]"
4,211.1 ± 3.3,CCOCCO [2-ethoxyethan-1-ol]

# Same assay, conditions: 299.15 K; 101.33 kPa; Liquid; Large sample (1 g) DSC
row,Compound,molar heat capacity at constant pressure [J/K/mol]
1,CCCCCCOCCOCCO [2-(2-hexyloxyethoxy)ethanol],421.4 ± 6.5
2,COCCOCCO [2-(2-methoxyethoxy)ethanol],267.6 ± 4.1
3,"CCOCCOCCO [3,6-dioxa-1-octanol]",301.9 ± 4.7

# The remaining lines, values ahead:
row,molar heat capacity at constant pressure [J/K/mol],Compound
1,241.8 ± 3.7,CCCOCCO [2-propoxyethanol]
2,329.7 ± 5.1,CCCOCCOCCO [2-(2-propoxyethoxy)ethanol]
3,448.8 ± 7,"COCCOCCOCCOCCO [3,6,9,12-tetraoxatridecanol]"
4,211.4 ± 3.3,CCOCCO [2-ethoxyethan-1-ol]

# Same assay, conditions: 301.15 K; 101.33 kPa; Liquid; Large sample (1 g) DSC
row,Compound,molar heat capacity at constant pressure [J/K/mol]
1,CCCCCCOCCOCCO [2-(2-hexyloxyethoxy)ethanol],422.3 ± 6.5
2,COCCOCCO [2-(2-methoxyethoxy)ethanol],268.2 ± 4.2
3,"CCOCCOCCO [3,6-dioxa-1-octanol]",302.5 ± 4.7

# Other lines, results leading:
row,molar heat capacity at constant pressure [J/K/mol],Compound
1,242.7 ± 3.8,CCCOCCO [2-propoxyethanol]
2,330.5 ± 5.1,CCCOCCOCCO [2-(2-propoxyethoxy)ethanol]
3,449.2 ± 7,"COCCOCCOCCOCCO [3,6,9,12-tetraoxatridecanol]"
4,212.1 ± 3.3,CCOCCO [2-ethoxyethan-1-ol]

# Same assay, conditions: 303.15 K; 101.33 kPa; Liquid; Large sample (1 g) DSC
row,Compound,molar heat capacity at constant pressure [J/K/mol]
1,CCCCCCOCCOCCO [2-(2-hexyloxyethoxy)ethanol],423.2 ± 6.6
2,COCCOCCO [2-(2-methoxyethoxy)ethanol],268.7 ± 4.2
3,"CCOCCOCCO [3,6-dioxa-1-octanol]",303.1 ± 4.7

# More lines, now with the values ahead:
row,molar heat capacity at constant pressure [J/K/mol],Compound
1,243.5 ± 3.8,CCCOCCO [2-propoxyethanol]
2,331.3 ± 5.1,CCCOCCOCCO [2-(2-propoxyethoxy)ethanol]
3,449.6 ± 7,"COCCOCCOCCOCCO [3,6,9,12-tetraoxatridecanol]"
4,212.8 ± 3.3,CCOCCO [2-ethoxyethan-1-ol]

# Same assay, conditions: 305.15 K; 101.33 kPa; Liquid; Large sample (1 g) DSC
row,Compound,molar heat capacity at constant pressure [J/K/mol]
1,CCCCCCOCCOCCO [2-(2-hexyloxyethoxy)ethanol],424.2 ± 6.6
2,COCCOCCO [2-(2-methoxyethoxy)ethanol],269.3 ± 4.2
3,"CCOCCOCCO [3,6-dioxa-1-octanol]",303.7 ± 4.7

# Second part, the molecule after the results:
row,molar heat capacity at constant pressure [J/K/mol],Compound
1,244.4 ± 3.8,CCCOCCO [2-propoxyethanol]
2,332 ± 5.1,CCCOCCOCCO [2-(2-propoxyethoxy)ethanol]
3,450 ± 7,"COCCOCCOCCOCCO [3,6,9,12-tetraoxatridecanol]"
4,213.6 ± 3.3,CCOCCO [2-ethoxyethan-1-ol]
